The conditions of data set [1]: Liquid, Ebulliometric method (Recirculating still).
Data set [2] can be described thus: refractive index (Na D-line) (dimensionless). Conditions: 293 K; 96.15 kPa; Liquid; Standard Abbe refractometry.
The nature of data set [3]: refractive index (Na D-line) (dimensionless); xn = mol fraction of the nth substance listed. Particulars: 293 K, 96.15 kPa, Liquid, Standard Abbe refractometry.

Numbers after ± are expanded uncertainties.

The values that follow come from the NIST ThermoML archive (doi:10.1021/acs.jced.6b00700).

With `CC(=O)O` [acetic acid], the “vapor or sublimation pressure” value in data set [1] (388.91 K) worked out at 96.15 ± 0.98 kPa. Besides, the refractive index in data set [2] came out at 1.3724 ± 0.004.

`CC(=O)O` [acetic acid] + COc1ccccc1: the refractive index in data set [3] (x1 = 1) came to 1.3724 ± 0.004.

Regarding `CC(C)=O` [acetone], the “vapor or sublimation pressure” value in data set [1] (327.9 K) was found to be 96.15 ± 0.98 kPa. The refractive index in data set [2] is given as 1.3606 ± 0.004.

Turning to `CC(C)=O` [acetone] + COc1ccccc1, the refractive index in data set [3] (x1 = 1) is recorded as 1.3606 ± 0.004.

Turning to `Nc1ccccc1` [aniline], the “vapor or sublimation pressure” value in data set [1] (455.4 K) came to 96.15 ± 0.99 kPa. Besides, the refractive index in data set [2] is recorded as 1.5868 ± 0.004.

Turning to `Nc1ccccc1` [aniline] + CN(C)C=O, the refractive index in data set [3] (x2 = 0) is listed as 1.5868 ± 0.004; in data set [3] (x2 = 0.0624) it was 1.5795 ± 0.004; in data set [3] (x2 = 0.1252) it was 1.5723 ± 0.004; in data set [3] (x2 = 0.2423) it was 1.5575 ± 0.004; in data set [3] (x2 = 0.3527), 1.543 ± 0.004; in data set [3] (x2 = 0.459), 1.5267 ± 0.004. The refractive index is on record as 1.5119 ± 0.004 in data set [3] (x2 = 0.5592); 1.4975 ± 0.004 in data set [3] (x2 = 0.6561); 1.4799 ± 0.004 in data set [3] (x2 = 0.7474); 1.4638 ± 0.004 in data set [3] (x2 = 0.8363); 1.4477 ± 0.004 in data set [3] (x2 = 0.9206); 1.4401 ± 0.004 in data set [3] (x2 = 0.9602).

For `COc1ccccc1` [anisole], the “vapor or sublimation pressure” value in data set [1] (424.55 K), in data set [1] (424.61 K) and in data set [1] (424.79 K) was 96.15 ± 0.99 kPa in each case. Further, the refractive index in data set [2] is on record as 1.5175 ± 0.004.

For `COc1ccccc1` [anisole] + CC(=O)O, the refractive index in data set [3] (x2 = 0) came out at 1.5175 ± 0.004; in data set [3] (x2 = 0.0875), 1.5107 ± 0.004; in data set [3] (x2 = 0.167), 1.503 ± 0.004; in data set [3] (x2 = 0.3109) it was 1.4878 ± 0.004; in data set [3] (x2 = 0.4358), 1.4731 ± 0.004; in data set [3] (x2 = 0.5453), 1.4584 ± 0.004. Besides, the refractive index in data set [3] (x2 = 0.6416) was 1.4441 ± 0.004; in data set [3] (x2 = 0.7302) it was 1.4295 ± 0.004; in data set [3] (x2 = 0.8075) it was 1.4155 ± 0.004; in data set [3] (x2 = 0.877), 1.4018 ± 0.004; in data set [3] (x2 = 0.9413) it was 1.3874 ± 0.004; in data set [3] (x2 = 0.9711) it was 1.3807 ± 0.004.

As for `COc1ccccc1` [anisole] + CC(C)=O, the refractive index in data set [3] (x2 = 0) is listed as 1.5175 ± 0.004; in data set [3] (x2 = 0.0888), 1.5095 ± 0.004; in data set [3] (x2 = 0.1723), 1.4998 ± 0.004; in data set [3] (x2 = 0.3184) it was 1.4879 ± 0.004; in data set [3] (x2 = 0.4448), 1.4709 ± 0.004; in data set [3] (x2 = 0.5541) it was 1.459 ± 0.004. In addition, the refractive index in data set [3] (x2 = 0.6508) was found to be 1.4441 ± 0.004; in data set [3] (x2 = 0.736), 1.4285 ± 0.004; in data set [3] (x2 = 0.8121), 1.406 ± 0.004; in data set [3] (x2 = 0.8816), 1.3923 ± 0.004; in data set [3] (x2 = 0.9434) it was 1.3746 ± 0.004; in data set [3] (x2 = 0.9725) it was 1.3678 ± 0.004.

For `COc1ccccc1` [anisole] + CC(C)O, the refractive index amounted to 1.5175 ± 0.004 in data set [3] (x2 = 0); 1.5092 ± 0.004 in data set [3] (x2 = 0.0879); 1.5011 ± 0.004 in data set [3] (x2 = 0.1663); 1.484 ± 0.004 in data set [3] (x2 = 0.3122); 1.4688 ± 0.004 in data set [3] (x2 = 0.4359); 1.4543 ± 0.004 in data set [3] (x2 = 0.5438). In addition, the refractive index in data set [3] (x2 = 0.6429) is recorded as 1.4403 ± 0.004; in data set [3] (x2 = 0.7293) it was 1.4272 ± 0.004; in data set [3] (x2 = 0.8063), 1.4143 ± 0.004; in data set [3] (x2 = 0.879), 1.4019 ± 0.004; in data set [3] (x2 = 0.9372), 1.3911 ± 0.004; in data set [3] (x2 = 0.9693) it was 1.3861 ± 0.004.

On to `CN(C)C=O` [dimethylformamide], for which the “vapor or sublimation pressure” value in data set [1] (424.53 K) and in data set [1] (424.6 K) was 96.15 ± 0.99 kPa throughout. Also, the refractive index in data set [2] is 1.4318 ± 0.004.

On to `CN(C)C=O` [dimethylformamide] + Nc1ccccc1, for which the refractive index in data set [3] (x1 = 1) was 1.4318 ± 0.004.

`CC(C)O` [propan-2-ol]: the “vapor or sublimation pressure” value in data set [1] (354.17 K) worked out at 96.15 ± 0.98 kPa. In addition, the refractive index in data set [2] was 1.3758 ± 0.004.

On to `CC(C)O` [propan-2-ol] + COc1ccccc1, for which the refractive index in data set [3] (x1 = 1) is 1.3758 ± 0.004.
